Patent US12077503B2, “Substituted cyclic amides and their use as herbicides” (FMC CORPORATION, priority 2015, dated 2024)

Key:
Assay type in all cases: in vivo
[1] = system: ryegrass, Italian (Italian ryegrass, Lolium multiflorum); assay: Test A postemergence
Excerpt: (§1) Seeds of plant species selected from barnyardgrass (Echinochloa crus-galli), Kochia (Kochia scoparia), ragweed (common ragweed, Ambrosia elatior), ryegrass, Italian (Italian ryegrass, Lolium multiflorum), crabgrass, large (Digitaria sanguinalis), giant foxtail (Setaria faberii), green foxtail (Setaria viridis), morningglory (Ipomoea spp.), pigweed (Amaranthus retroflexus), velvetleaf (Abutilon theophrasti), wheat (Triticum aestivum), and corn (Zea mays) were planted into a blend of loam soil and sand and treated preemergence with a directed soil spray using test chemicals formulated in anon-phytotoxic solvent mixture which included a surfactant.
(§2) At the same time, plants selected from these crop and weed species and also blackgrass (Alopecurus myosuroides), and Galium (catchweed bedstraw, Galium aparine) were planted in pots containing the same blend of loam soil and sand and treated with postemergence applications of test chemicals formulated in the same manner. Plants ranged in height from 2 to 10 cm and were in the one- to two-leaf stage for the postemergence treatment. Treated plants and untreated controls were maintained in a greenhouse for approximately 10 d, after which time all treated plants were compared to untreated controls and visually evaluated for injury. Plant response ratings, summarized in Table A, are based on a 0 to 100 scale where 0 is no effect and 100 is complete control. A dash (-) response means no test result.

[2] = system: Galium (catchweed bedstraw, Galium aparine); assay: Test A postemergence
Excerpt: as §1, §2

[3] = system: barnyardgrass (Echinochloa crus-galli); assay: Test A postemergence; conditions: for Barnyardgrass plant response rating: 125 g ai/ha, postemergence, visual injury rating on 0 to 100 scale (0 no effect, 100 complete control), approx. 10 d; for Plant response rating, Barnyardgrass: Postemergence, 500 g ai/ha, 0 to 100 scale where 0 is no effect and 100 is complete control
Excerpt: as §1, §2

[4] = system: wheat (Triticum aestivum); assay: Test A postemergence
Excerpt: as §1, §2

[5] = system: pigweed (Amaranthus retroflexus); assay: Test A postemergence
Excerpt: as §1, §2

[6] = system: Kochia (Kochia scoparia); assay: Test A postemergence
Excerpt: as §1, §2

[7] = system: blackgrass (Alopecurus myosuroides); assay: Test A postemergence; conditions: for Blackgrass plant response rating: 125 g ai/ha, postemergence, visual injury rating on 0 to 100 scale (0 no effect, 100 complete control), approx. 10 d; for Plant response rating, Blackgrass: Postemergence, 500 g ai/ha, 0 to 100 scale where 0 is no effect and 100 is complete control
Excerpt: as §1, §2

[8] = system: ragweed (common ragweed, Ambrosia elatior); assay: Test A postemergence
Excerpt: as §1, §2

[9] = system: giant foxtail (Setaria faberii); assay: Test A postemergence
Excerpt: as §1, §2

[10] = system: corn (Zea mays); assay: Test A postemergence
Excerpt: as §1, §2

[11] = system: ryegrass, Italian (Italian ryegrass, Lolium multiflorum); assay: Test A preemergence; conditions: Preemergence; for Plant response rating, Ryegrass, Italian: 125 g ai/ha, visual injury after approximately 10 d, 0 to 100 scale where 0 is no effect and 100 is complete control; for Ryegrass, Italian plant response rating (0 to 100 scale, 0 is no effect, 100 is complete control): 500 g ai/ha, visual injury approx. 10 d
Excerpt: as §1, §2

[12] = system: barnyardgrass (Echinochloa crus-galli); assay: Test A preemergence; conditions: Preemergence; for Plant response rating, Barnyardgrass: 125 g ai/ha, visual injury after approximately 10 d, 0 to 100 scale where 0 is no effect and 100 is complete control; for Barnyardgrass plant response rating (0 to 100 scale, 0 is no effect, 100 is complete control): 500 g ai/ha, visual injury approx. 10 d
Excerpt: as §1, §2

[13] = system: pigweed (Amaranthus retroflexus); assay: Test A preemergence; conditions: Preemergence; for Plant response rating, Pigweed: 125 g ai/ha, visual injury after approximately 10 d, 0 to 100 scale where 0 is no effect and 100 is complete control; for Pigweed plant response rating (0 to 100 scale, 0 is no effect, 100 is complete control): 500 g ai/ha, visual injury approx. 10 d
Excerpt: as §1, §2

[14] = system: Kochia (Kochia scoparia); assay: Test A preemergence; conditions: Preemergence; for Plant response rating, Kochia: 125 g ai/ha, visual injury after approximately 10 d, 0 to 100 scale where 0 is no effect and 100 is complete control; for Kochia plant response rating (0 to 100 scale, 0 is no effect, 100 is complete control): 500 g ai/ha, visual injury approx. 10 d
Excerpt: as §1, §2

[15] = system: ragweed (common ragweed, Ambrosia elatior); assay: Test A preemergence; conditions: Preemergence; for Plant response rating, Ragweed: 125 g ai/ha, visual injury after approximately 10 d, 0 to 100 scale where 0 is no effect and 100 is complete control; for Ragweed plant response rating (0 to 100 scale, 0 is no effect, 100 is complete control): 500 g ai/ha, visual injury approx. 10 d
Excerpt: as §1, §2

[16] = system: giant foxtail (Setaria faberii); assay: Test A preemergence; conditions: Preemergence; for Plant response rating, Foxtail, Giant: 125 g ai/ha, visual injury after approximately 10 d, 0 to 100 scale where 0 is no effect and 100 is complete control; for Foxtail, Giant plant response rating (0 to 100 scale, 0 is no effect, 100 is complete control): 500 g ai/ha, visual injury approx. 10 d
Excerpt: as §1, §2

[17] = 125 g ai/ha, postemergence, visual injury rating on 0 to 100 scale (0 no effect, 100 complete control), approx. 10 d
[18] = Postemergence, 500 g ai/ha, 0 to 100 scale where 0 is no effect and 100 is complete control
[19] = 125 g ai/ha, postemergence, visual rating after approx. 10 d, 0 to 100 scale (0 no effect, 100 complete control)

Compound | Plant response rating, Ryegrass, Italian [1, 18] | Plant response rating, Galium [2, 18] | Barnyardgrass plant response rating [3] | Plant response rating, Barnyardgrass [3] | Plant response rating, Wheat [4, 18] | Plant response rating, Pigweed [5, 18] | Plant response rating, Kochia [6, 18] | Blackgrass plant response rating [7] | Plant response rating, Blackgrass [7] | Plant response rating, Ragweed [8, 18] | Plant response rating, Foxtail, Giant [9, 18] | Plant response rating, Corn [10, 18] | Plant response rating, Ryegrass, Italian [11] | Ryegrass, Italian plant response rating (0 to 100 scale, 0 is no effect, 100 is complete control) [11] | Plant response rating, Barnyardgrass [12] | Barnyardgrass plant response rating (0 to 100 scale, 0 is no effect, 100 is complete control) [12] | Plant response rating, Pigweed [13] | Pigweed plant response rating (0 to 100 scale, 0 is no effect, 100 is complete control) [13] | Plant response rating, Kochia [14] | Kochia plant response rating (0 to 100 scale, 0 is no effect, 100 is complete control) [14] | other results
O=C(Nc1ccccc1F)C1C(=O)N(C2C=CCCC2)CC1c1cccc(C(F)(F)F)c1 (stereo not drawn) [Compound 524] | 0 | 0 | 30 | 70 | 0 | 0 | 0 | 0 | 20 | 0 | 70 | 0 | 0 | 0 | 20 | 40 | 0 | 0 | 0 | 0 | Ryegrass, Italian plant response rating [1, 17]: 0; Galium plant response rating [2, 17]: 0; Wheat plant response rating [4, 17]: 0; Pigweed plant response rating [5, 17]: 0; Kochia plant response rating [6, 17]: 0; Ragweed plant response rating [8, 17]: 0; Foxtail, Giant plant response rating [9, 17]: 30; Corn plant response rating [10, 17]: 0; Plant response rating, Ragweed [15]: 0; Ragweed plant response rating (0 to 100 scale, 0 is no effect, 100 is complete control) [15]: 0; Plant response rating, Foxtail, Giant [16]: 40; Foxtail, Giant plant response rating (0 to 100 scale, 0 is no effect, 100 is complete control) [16]: 70
O=C(Nc1ccccc1F)C1C(=O)N(CC=CBr)CC1c1cccc(C(F)(F)F)c1 (stereo not drawn) [Compound 526] | 0 | 0 | 10 | 20 | 0 | 0 | 0 | 0 | 0 | 0 | 40 | 0 | 0 | 0 | 0 | 20 | 0 | 0 | 0 | 0 | Plant response rating, Ryegrass, Italian [1, 19]: 0; Plant response rating, Galium [2, 19]: 0; Plant response rating, Wheat [4, 19]: 0; Plant response rating, Pigweed [5, 19]: 0; Plant response rating, Kochia [6, 19]: 0; Plant response rating, Ragweed [8, 19]: 0; Plant response rating, Foxtail, Giant [9, 19]: 20; Plant response rating, Corn [10, 19]: 0; Plant response rating, Ragweed [15]: 0; Ragweed plant response rating (0 to 100 scale, 0 is no effect, 100 is complete control) [15]: 0; Plant response rating, Foxtail, Giant [16]: 70; Foxtail, Giant plant response rating (0 to 100 scale, 0 is no effect, 100 is complete control) [16]: 80
O=C(Nc1cccc(F)c1F)C1C(=O)N(CC=CBr)CC1c1cccc(C(F)(F)F)c1 (stereo not drawn) [Compound 527] | 0 | 0 | 0 | 20 | 0 | 0 | 0 | 0 | 0 | 0 | 20 | 0 | 0 | 0 | 0 | 20 | 0 | 0 | 0 | 0 | Plant response rating, Ryegrass, Italian [1, 19]: 0; Plant response rating, Galium [2, 19]: 0; Plant response rating, Wheat [4, 19]: 0; Plant response rating, Pigweed [5, 19]: 0; Plant response rating, Kochia [6, 19]: 0; Plant response rating, Ragweed [8, 19]: 0; Plant response rating, Foxtail, Giant [9, 19]: 0; Plant response rating, Corn [10, 19]: 0; Plant response rating, Ragweed [15]: 0; Ragweed plant response rating (0 to 100 scale, 0 is no effect, 100 is complete control) [15]: 0; Plant response rating, Foxtail, Giant [16]: 80; Foxtail, Giant plant response rating (0 to 100 scale, 0 is no effect, 100 is complete control) [16]: 80
